SMILES strings stand for the structures.

As to `CC(C)(C)OC(=O)NC(Cc1ccccc1)CC(O)C(Cc1ccccc1)NC(=O)OCc1cncs1` (configuration not stated), the melting point (commonly the temperature of the solid-liquid transition) was in the range of 118 to 120 °C.

With `O=S1c2ccc(F)cc2CCc2ccc(CO)cc21` (configuration not stated), the melting point was in the range of 181 to 183 °C.

`c1csc(-c2cccc3c(-c4cccs4)cccc23)c1`: the melting point was 193 to 195 °C.

The molecule `O=Cc1c(O)c(O)cc([N+](=O)[O-])c1CCCC(=O)O` gave a melting point of 164 to 168 °C.

`Cc1cc(C(C)(C)C)c(O)c2[nH]c(Cc3ccccc3)nc12`: the melting point lay within 226 to 228 °C.

`COc1c(C)c(=O)oc2cc(-c3nnc(C)s3)ccc12` displayed a melting point of 177 °C.

With `Cc1ccc(-c2[nH]c(-c3ccc([N+](=O)[O-])cc3)nc2C(=O)Nc2nccs2)cc1`, the melting point fell in the range of 256 to 258 °C.

As to `CC1=NN=C(N2N=C(c3ccc([N+](=O)[O-])cc3)c3cc4c(cc3CC2C)OCO4)SC1` (configuration not stated), the melting point lay in the range of 203 to 204 °C.

`COc1ccc2nc(NC(=O)C(CC3CCCC3)c3ccc(S(=O)(=O)CC(C)=O)cc3)sc2n1` (configuration not stated) yielded a melting point of 67 to 71 °C.

`O=C(O)CS(=O)c1cccc(-c2nc(=O)c3ccccc3s2)n1` (configuration not stated) yielded a melting point of 186 to 188 °C.

On to `CNC(=O)ON=C1SC(C)(C)N=C1C`, for which the melting point was in the range of 90 to 92 °C.

`CCc1ccnc(C(=O)c2[nH]c3ccc(CC)cc3c2CC(=O)O)c1` displayed a melting point of 206 °C.

Molecule `COc1ccc(-c2cc(F)c(F)cc2-c2ccc(S(N)(=O)=O)cc2)cc1OC` returned a melting point of 157 to 158 °C.

With `C#Cc1cc(C)c(Oc2ccc([N+](=O)[O-])c(Nc3ccc(C#N)cc3)n2)c(C)c1`, the melting point lay within 186 to 188 °C.

Molecule `COCC(C)n1nc(-c2cnc(N)nc2-c2ccccc2)ccc1=O` (configuration not stated) gave a melting point of 180 to 181 °C.

In turn, `CC(=NOCCOc1ccc(CC2SC(=O)NC2=O)cc1)c1ccc(-c2ccc3c(c2)OCO3)cc1` (configuration not stated) had a melting point of 137 to 139 °C.

For `CC(=O)OC1CC2CCC3C(CCC4(C)C(O)C(N5CCCC5)CC34)C2(C)CC1N1CCOCC1` (configuration not stated), the melting point lay within 112 to 118 °C.

In turn, `COc1cc2ncnc(Nc3nccc4ccccc34)c2cc1OC` registered a melting point of 198 to 199 °C.

For the molecule `CCC(O)c1ccc(Cl)c2nc3n(c12)CCCN3c1c(Br)cc(OC)cc1Br` (configuration not stated), the melting point lay in the range of 138 to 140 °C.

In the case of `CCOC(=O)c1cn(Cc2c(F)cccc2F)c2sc(-c3ccccc3)c(CBr)c2c1=O`, the melting point was 206 °C.

`OC/C=C(\c1ccccc1)c1ccc(C#Cc2ccccc2)cc1` had a melting point of 115 to 117 °C.

`Cc1nccc(O)c1[N+](=O)[O-]` returned a melting point of 140 °C.

`Cc1oc2c(C)cc(C=O)cc2c1C` gave a melting point of 57 to 58 °C.

In turn, `OCc1n[nH]c(-c2ccc(CN3CCCCCC3)s2)n1` came in with a melting point of 159 to 161 °C.

Regarding `COc1cc(CN2CCN(Cc3ccc(NC(=O)C4=Cc5cc(-c6ccc(C)cc6)ccc5CC4)cc3)CC2)cc(OC)c1OC`, the melting point lay within 143 to 144 °C.

On to `O=C(Cc1ccccc1)c1ccc(C(F)(F)F)cc1`, for which the melting point lay within 127 to 128 °C.

`CCCNC(=O)c1ccc(-c2ccc3nnn(C(C)(C)c4ccc5ncccc5c4)c3n2)cc1F`: the melting point fell in the range of 162 to 164 °C.

The molecule `C[C@H]1C=CC(S(=O)(=O)c2ccccc2)=C[C@H](C)[C@H]1O` registered a melting point of 100 to 102 °C.

Molecule `CNC(=O)NS(=O)(=O)c1cc2c(cc1OC)OCCC2CNC(=O)c1cc(Cl)ccc1OC` (single isomer, unassigned; (+)) showed a melting point of 147 to 148 °C.

The molecule `O=C(O)C1C(=O)c2cc(F)ccc2N=C1c1ccccc1` (configuration not stated) yielded a melting point of 297 °C.

The molecule `CC(C)(C)C(=O)C(CSc1ccc(Cl)cc1)n1cncn1` (configuration not stated) showed a melting point of 67 °C.

`Cc1c(C)c2c(c(C)c1NC(=O)c1ccccc1)CC(C)(C)O2` returned a melting point of 263 to 265 °C.

In turn, `COc1ccc2c(C)c(C(=O)C34CC5CC(CC(C5)C3)C4)oc2c1` yielded a melting point of 173 to 175 °C.

`CC(C)OC(=O)Cn1c(=O)n(C)c(=O)n(-c2cc(N=c3sc(=S)n4n3CCCC4)c(F)cc2Cl)c1=O`: the melting point was in the range of 115 to 122 °C.

`CCOC(=O)C(=O)Nc1c([N+](=O)[O-])cc(S(=O)(=O)NC(=O)C(=O)OCC)c2c1CCCC2` returned a melting point of 140 to 142 °C.

For the molecule `O=C(c1ccc2ncccc2c1)c1ccc2[nH]c(=O)nc(-c3cccc(Cl)c3)c2c1`, the melting point was > 260 °C.

In turn, `CC(c1oc2ccccc2c(=O)c1-c1cccc(F)c1)n1ccc2c(Cl)ncnc21` (configuration not stated) showed a melting point of 71 to 75 °C.

The molecule `COc1ccc(C(=O)C(C)NC(=O)C(F)(F)F)cc1` (configuration not stated) gave a melting point of 110 to 114 °C.

`CCn1c(=O)c(C#N)c(N)c2ccc(C)nc21`: the melting point is > 300 °C.

`CCOC(=O)c1c[nH]c2cc(C(=O)NC3CCN(Cc4ccccc4)CC3)nn2c1=O` registered a melting point of 264 to 266 °C.

Consider `CCCCCCCCCCCCCCCCCCCCCCOC(=O)P(=O)(OC)OC`, for which the melting point was 60 to 61 °C.

Molecule `O=C(C=Cc1ccccc1O)C=Cc1ccccc1O` had a melting point of 155 °C.

In turn, `O=C(c1cccnn1)c1ccccc1Cl` had a melting point of 105 to 107 °C.

The molecule `O=C(OCC(O)CO)c1cc(F)ccc1Nc1ccnc2c(C(F)(F)F)cccc12` (configuration not stated) came in with a melting point of 197 to 198 °C.

In turn, `C#CCNC(=O)N1CC(Oc2ccc(C(F)(F)F)cc2)C1` displayed a melting point of 135 to 137 °C.

Take `O=C(O)C1CCCN1C(=O)COc1ccccc1` (configuration not stated): the melting point fell in the range of 109 to 111 °C.

Consider `COc1c(C(=O)O)ccc(Cl)c1SC`, for which the melting point is 121 to 123 °C.

The molecule `O=C(OCC(O)CO)C(=O)c1ccc(OCCOc2ccc3ccccc3c2)cc1` (configuration not stated) yielded a melting point of 124 to 125 °C.

Regarding `Oc1cccc(C2CCCN2Cc2ccccc2)c1` (configuration not stated), the melting point was in the range of 113 to 115 °C.

In the case of `CNC(=O)c1ccccc1Nc1nc(Nc2ccc3c(c2)CCC(NCC(F)F)CC3)ncc1Cl` (configuration not stated), the melting point is 182 to 183 °C.

As to `CC(=O)c1ccc(OCCCC(=O)O)c(C)c1`, the melting point lay in the range of 114 to 116 °C.

In turn, `N#Cc1cnn2c(-c3cccc(F)c3)ccnc12` showed a melting point of 222 to 224 °C.

Molecule `CC(C)Cc1nn(C)c(=O)c2c(S(=O)CCCO)c(Cc3cccc4ccccc34)sc12` (configuration not stated) came in with a melting point of 60 to 65 °C.

For the molecule `COc1cc(C)c(OCCCC(C)(C)C(=O)O)cc1C`, the melting point was in the range of 85 to 86 °C.

The molecule `Cc1nc(-c2nc(C)c(-c3ccnc(Nc4ccc(N5CCOCC5)cc4)n3)s2)cs1` registered a melting point of 262 to 263 °C.

For `CC1=C(C(=O)OC(C)C)C(c2ccccc2F)c2c[nH]nc2N1` (configuration not stated), the melting point lay in the range of 218 to 220 °C.

In turn, `N#Cc1ccc(N2CCN(Cc3cnc4c(c3)NC(=O)[C@@H]3CCCN43)CC2)nc1` came in with a melting point of 252 to 256 °C.

`CN1C(=O)CC[C@]2(C)c3ccc(Sc4nc5ccc(Cl)cc5s4)cc3CC[C@@H]12` showed a melting point of 156 to 162 °C.

Take `CCCc1nc(CO)c(C(=O)OCC)n1Cc1ccc(-c2ccccc2C(=O)OC(C)(C)C)cc1`: the melting point was 108 to 110 °C.

As to `O=C1CC(c2cccc(-n3ccnc3)c2)=Nc2cc(OCCO)c(C#Cc3ccccc3)cc2N1`, the melting point was 224 to 227 °C.

Regarding `COc1ccc2c(c1)CCC(c1ccc(F)cc1)C2=O` (configuration not stated), the melting point lay within 124 to 127 °C.

As for `Cc1oc(-c2ccccc2)nc1COc1ccc(CCCCCBr)cc1`, the melting point was 58 to 59 °C.

`CC(C)Oc1cc(F)c2c(c1)Oc1cc(F)ccc1S2(=O)=O` showed a melting point of 148 to 151 °C.

Molecule `CC(C(=O)O)c1cccc(S(=O)(=O)c2ccccc2Cl)c1O` (configuration not stated) returned a melting point of 180 to 181 °C.

In turn, `CCOc1cccc(-c2c(C)c(=O)cc(-c3ccccc3)n2-c2ccccc2)c1` came in with a melting point of 146 to 149 °C.

Regarding `CCC(CC)c1ccc(Cl)c2nc(Nc3cc(Cl)cc(Cl)c3)n(CCCCO)c12`, the melting point lay in the range of 208 to 210 °C.

The molecule `CC(=O)NCc1c(C)cc(CO)cc1C` displayed a melting point of 194 °C.

`Nc1nc(SC(c2ccccc2)c2ccccc2)c2[nH]cnc2n1` registered a melting point of 226 to 227 °C.

`O=C(O)CC(Br)C(Br)c1ccc(Cl)cc1Cl` (configuration not stated) gave a melting point of 184 to 185 °C.

`COc1cc(C(=O)CCC(=O)c2cc(OC)c(OC)c(OC)c2)cc(I)c1OCc1ccccc1` had a melting point of 134 to 135 °C.

Turning to `CC(C)Cn1cnc2c(N)nc3ccc(-c4ccsc4)cc3c21`, the melting point was 235 to 236 °C.

As to `COc1ccc(Cn2c(=O)c3cccnc3n(CCCCBr)c2=O)cc1`, the melting point was 80 to 82 °C.

For the molecule `N[C@@H](Cc1ccccc1)C(=O)NC(=O)OCc1ccccc1`, the melting point fell in the range of 158 to 160 °C.

`Cc1cc(-c2ccccc2)n(-c2ccc(C(=O)O)cc2)n1` registered a melting point of 159 to 162 °C.

`O=C(NC(Cc1ccccc1)c1ccc(O)cc1)C(c1ccccc1)c1ccccc1` (configuration not stated): the melting point lay in the range of 67 to 69 °C.

`CCCCCCCCCCCCCCCC(=O)C(O)C(=O)C(O)C(=O)CCCCCCCCCCCCCCC` (configuration not stated) displayed a melting point of 80 to 81 °C.

In the case of `CCCCc1ncc(C=C2C(=O)N(C)c3ccccc32)n1Cc1ccc(C(=O)O)cc1`, the melting point fell in the range of 185 to 188 °C.

On to `Cc1ccc(S(=O)(=O)C2=CC3C=CC2N3C(=O)OC(C)(C)C)cc1` (configuration not stated), for which the melting point is 94 to 99 °C.

For the molecule `C=C=Cn1[nH]c2ccccc2c1=O`, the melting point was in the range of 126 to 130 °C.

For `COC(=O)c1ccc(C(=O)Nc2ccccc2OC)cc1`, the melting point was in the range of 119 to 121 °C.

`CN1C(C(=O)Nc2cccccc2=O)=C(OC(=O)C=Cc2ccccc2)c2sccc2S1(=O)=O` yielded a melting point of 167 to 170 °C.

As to `CC(C)(C)c1ccc(-c2c(Cl)c(CN3C(=O)CCC3=O)nc3sc4c(c23)CCNC4)cc1`, the melting point was in the range of 210 to 212 °C.

In turn, `CC12CCC3c4ccc(C(=O)O)cc4CCC3C1CCC2C(=O)CCc1ccccc1` (configuration not stated) yielded a melting point of 181 to 183 °C.

The molecule `O=C1C=CC(=O)N1c1ccccc1SCCSc1ccccc1N1C(=O)C=CC1=O` displayed a melting point of 110 to 115 °C.

As to `COc1cc(Nc2c(C#N)cnc3c2sc2ccc([N+](=O)[O-])cc23)c(C)cc1Cl`, the melting point is > 305 °C.

`NC(=O)c1nc[nH]c1F` displayed a melting point of 253 to 254 °C.

As to `Cn1cc(CC2CCN(CCN3c4cccc5cccc(c45)S3(=O)=O)CC2)c2cc(F)ccc21`, the melting point was in the range of 150 to 152 °C.

(Values after a melting point compilation (Tetko et al.; mined from patent text by program, amines drawn as free bases though some values may be those of a salt).)
